In brackets after ≈: the same amount, converted by molar mass.
Experiments:
Salmonella spp. (20) = test: MIC, CLSI broth microdilution; type: cell-based; details: for % by category resistant / % by category susceptible: CLSI 2008 criteria; for MIC 50% / MIC 90% / MIC Range: Salmonella spp., 20 strains; for MIC50 / MIC90: Salmonella
Shigella spp. (40) = test: MIC, CLSI broth microdilution; type: cell-based; details: for % by category resistant / % by category susceptible: CLSI 2008 criteria
[1] = test system: intraphagocytic L. pneumophila ATCC 33153; type: cell-based, Legionella pneumophila
[2] = test system: intraphagocytic L. monocytogenes EGD; type: cell-based, Listeria monocytogenes
H. pylori (23) = test: MIC, agar dilution / Etest; details: for MIC50: Helicobacter pylori, read-out: MIC 50% (Etest)
C. jejuni (20) = test: MIC, agar dilution / Etest

Row | Compound | % by category resistant (Salmonella spp. (20)) | % by category susceptible (Salmonella spp. (20)) | MIC 50% (Salmonella spp. (20)) | MIC 90% (Salmonella spp. (20)) | % by category resistant (Shigella spp. (40)) | % by category susceptible (Shigella spp. (40)) | MIC 50% (Shigella spp. (40); Shigella spp., 40 strains) | MIC 90% (Shigella spp. (40); Shigella spp., 40 strains) | further results
1 | Trimethoprim-sulfamethoxazole [Trim-sulfa] | 0.0% | 100.00% | ≦0.25 μg/ml | ≦0.25 μg/ml | 62.5% | 37.5% | >4 µg/mL | >4 µg/mL | MIC Range (Salmonella spp. (20)): ≦0.25 μg/ml
2 | Quinupristin-dalfopristin | – | – | >4 µg/mL | >4 µg/mL | – | – | >4 µg/mL | >4 µg/mL | MIC Range (Shigella spp. (40); Shigella spp., 40 strains): >4 µg/mL
3 | C=CC1=C(C(=O)O)N2C(=O)[C@@H](NC(=O)/C(=N\O)c3csc(N)n3)[C@H]2SC1 [Cefdinir] | 0.0% | 100.00% | – | – | 0.0% | 100.0% | – | – | MIC50 (Salmonella spp. (20)): 0.25 µg/mL (≈ 0.632 µM); MIC90 (Salmonella spp. (20)): 0.5 µg/mL (≈ 1.26 µM); MIC50 (Shigella spp. (40); Shigella spp., 40 strains): 0.25 µg/mL (≈ 0.632 µM); MIC90 (Shigella spp. (40); Shigella spp., 40 strains): 0.25 µg/mL (≈ 0.632 µM)
4 | Amoxicillin-clavulanate | 0.0% | 95.0% | 2 µg/mL | 8 µg/mL | 0.0% | 72.5% | 8 µg/mL | >8 µg/mL | –
5 | CC[C@H]1OC(=O)[C@H](C)[C@@H](O[C@H]2C[C@@](C)(OC)[C@@H](O)[C@H](C)O2)[C@H](C)[C@@H](O[C@@H]2O[C@H](C)C[C@H](N(C)C)[C@H]2O)[C@](C)(O)C[C@@H](C)CN(C)[C@H](C)[C@@H](O)[C@]1(C)O [AZI, azithromycin] | – | – | – | – | – | – | – | – | MIC50 (Salmonella spp. (20)): 4 µg/mL (≈ 5.34 µM); MIC90 (Salmonella spp. (20)): 8 µg/mL (≈ 10.7 µM); MIC Range (Salmonella spp. (20)): 2 to 8 µg/mL; MIC Range (Salmonella spp. (20); listed as AZ): 2-8 (AZ) μg/ml; MIC50 (Shigella spp. (40); Shigella spp., 40 strains): 4 µg/mL (≈ 5.34 µM); MIC90 (Shigella spp. (40); Shigella spp., 40 strains): 8 µg/mL (≈ 10.7 µM); Emax, CFU decrease from original inoculum ([1]; 48 h): −0.83 log10 units; Emax, Δ log10 CFU at 24 h compared to the post-phagocytosis inoculum ([1]; L.p., intracellular): −0.83 Δ log10 CFU; Emax, Δ log10 CFU at 24 h compared to the post-phagocytosis inoculum [2]: −0.81 Δ log10 CFU; Emax, CFU decrease from original inoculum ([2]; 24 h): −0.81 log10 units
6 | Cc1ncc([N+](=O)[O-])n1CCO [Metronidazole] | – | – | – | – | – | – | – | – | MIC Range (Etest) (H. pylori (23); H. pylori, eight strains, Etest): 0.06 to 64 µg/mL; MIC50 (H. pylori (23)): 0.5 µg/mL (≈ 2.92 µM)
7 | CN(C)[C@@H]1C(O)=C(C(N)=O)C(=O)[C@@]2(O)C(O)=C3C(=O)c4c(O)cccc4[C@@](C)(O)[C@H]3C[C@@H]12 [Tetracycline] | – | – | – | – | – | – | – | – | MIC50 (H. pylori (23)): 0.06 µg/mL (≈ 0.135 µM); MIC Range (Etest) (C. jejuni (20); C. jejuni, 20 strains, Etest): 0.06 to 256 µg/mL; MIC50 (C. jejuni (20); Campylobacter jejuni, read-out: MIC 50% (Etest)): 64 µg/mL (≈ 144 µM); MIC90 (C. jejuni (20); Campylobacter jejuni, read-out: MIC 90% (Etest)): > 256 µg/mL

Reference: patent publication US9439918B2 (priority 2008, dated 2016)
